Patent US11578055B2, “Triazacyclododecansulfonamide (“TCD”)-based protein secretion inhibitors” (KEZAR LIFE SCIENCES, priority 2018, dated 2023)
Read-outs that look alike come from different tables or passages of the source.

Key:
[1] = test system: target signal sequences plus 10 amino acids fused to Gaussia Luciferase; assay: Transiently Expressed Dox Induced Signal Sequence-Gluc Assay; format: cell-based; conditions: read-out: Signal Sequence-Gluc potency
Protocol: FIp-In 293 T-REx™ cells were transfected with 500 ng pcDNA™5/FRT/TO plasmids inserted with cDNA encoding Gaussia Luciferase fused to the 3′ end of cDNA encoding target signal sequences plus 10 amino acids. Transfected cells were incubated overnight then cells were trypsinized and plated in 384-well tissue culture plates. The next day, compound dilutions in DMSO/media containing doxycycline were added to the wells and incubated at 37° C., 5% CO2.

[2] = test system: full length IL-2 (amino acids 1-153) fused to Gaussia Luciferase; assay: Dox Induced IL2-FL-Gluc Assay; format: cell-based; conditions: 24 hr, 293FRT/TO; read-out: 24 hr Dox Inducible IL2FLGluc 293FRT/TO: Mean IC50
Outline: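 Compounds in DMSO/media with doxycycline were added to cells plated the previous day and incubated at 37° C, 5% CO2. Cells: stable Flp-In 293 T-REx line, Dox-regulated expression of IL-2 (aa 1-153) fused at its C-terminus to Gaussia luciferase.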

IL-6 = assay: Human PBMC Cytokine Assay: IL-6; format: cell-based; conditions: LPS stimulation, 24 hours
Protocol: (§1) Human PBMC were freshly isolated from whole blood collections of 3 normal donors utilizing density gradient centrifugation followed by red blood cell lysis. PBMC from each donor were assayed separately. Cells were suspended in RPMI 1640 media supplemented with 5% fetal bovine serum, 2 mM L-glutamine, 10 mM HEPES, and 1× penicillin/streptomycin. PBMC were seeded at 200,000 cells/well in 96-well round-bottom plates either without stimulation or with stimulation by lipopolysaccharide (LPS, 1 μg/mL) or antibodies against human CD3 (plate-bound, 2 μg/mL) and human CD28 (soluble, 2 μg/mL). Serial dilutions of compound in DMSO/media were simultaneously added and PBMC were incubated at 37° C., 5% CO2 for 24 hours. After 24 hours, plates were centrifuged and half of the supernatant volume removed for cytokine analysis by electrochemiluminescent immunoassay (U-PLEX® Biomarker Multiplex, Meso Scale Discovery). For viability analysis, CellTiter-Glo® (Promega) was added to the remaining material in each well and quantified via luminescent plate reader.

GM-CSF = assay: Human PBMC Cytokine Assay: GM-CSF; format: cell-based; conditions: anti-CD3/CD28 stimulation, 24 hours
Protocol: as §1

B16F10 cells = assay: Efficacy study: tumor growth and body weight in a B16F10 model; format: in vivo, C57BL/6 mice; conditions: B16F10 refractory model, once-a-week dosing, compared to anti-PD-1 therapy
Protocol: Efficacy Study: Effect of Compound A87 on Tumor Growth and Body Weight in a B16F10 Model Comparted to Anti-PD-1 Therapy.
Female C57BL/6 mice (7-8 week old) were injected in the flank subcutaneously with 5×10^6 B16F10 cells in 0.1 ml on Day 0. On Day 3, compound A87 formulated in 10% ETOH/10% Kolliphor EL was administered IV 30 mg/kg QW, IV 10 mg/kg D1D2, or IP 15 mg/kg QOD. Anti-PD1 antibody treatment (RMP1-14 from Bioxcell, 200 μg) was administered i.p. on a QOD×3 dose schedule. Tumor size was monitored with a digital caliper (Fowler) every 2-3 d until reaching a size of 1.5-2.0 cm and expressed as volume (length×width×height). B16F10, a melanoma line, was obtained from ATCC. C57/BL6 mice were purchased from Charles rivers laboratories.

TNFα = assay: Human PBMC Cytokine Assay: TNFα; format: cell-based; conditions: anti-CD3/CD28 stimulation, 24 hours
Protocol: as §1

[3] = test system: PD1 signal sequence plus 10 amino acids fused to Gaussia Luciferase (PD1-ss+10aa/Gaussia Luciferase); assay: Dox Induced PD1-ss-Gluc Assay; format: cell-based; conditions: 24 hr, 293FRT/TO; read-out: 24 hr Dox Inducible PD1ssGluc 293FRT/TO: Mean IC50
Outline: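 Compound dilutions in DMSO/media containing doxycycline were applied to a stable, inducible 293 T-REx line carrying the luciferase fusion, then incubated at 37 °C, 5% CO2. Where stereochemistry is not drawn, values relate to isomer mixtures.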

With C[C@H]1CN(S(=O)(=O)c2ccc(N(C)C)cc2)CCCN(CC2CCCCC2)CCCN(S(=O)(=O)N2CCc3cc(Cl)ccc3C2)C1 [A87] the IC50 ([1]; Target ADAM10 signal peptide +10 amino acids) was 231 nM, the IC50 ([1]; Target B7H3 signal peptide +10 amino acids) was 27 nM and the IC50 ([1]; Target CD73 signal peptide +10 amino acids) was 58 nM. The IC50 ([1]; Target CD96 signal peptide +10 amino acids) was 12 nM, the IC50 ([1]; Target CTLA-4 signal peptide +10 amino acids) was 259 nM and the IC50 ([1]; Target EGFR signal peptide +10 amino acids) was 60 nM. The IC50 ([1]; Target GP130 signal peptide +10 amino acids) was 201 nM, the IC50 ([1]; Target HER3 signal peptide +10 amino acids) was 89 nM and the IC50 ([1]; Target IFN-a1 signal peptide +10 amino acids) was 128 nM. The IC50 ([1]; Target IFN-a2 signal peptide +10 amino acids) was 51 nM, the IC50 ([1]; Target IFN-a4 signal peptide +10 amino acids) was 221 nM and the IC50 ([1]; Target IFN-b signal peptide +10 amino acids) was 818 nM. For the same compound, the IC50 ([1]; Target IFNAR1 signal peptide +10 amino acids) was 14 nM, the IC50 ([1]; Target IFNAR2 signal peptide +10 amino acids) was 133 nM and the IC50 ([1]; Target IL-1R1 signal peptide +10 amino acids) was 374 nM. The IC50 ([1]; Target IL-1R2 signal peptide +10 amino acids) was 23 nM, the IC50 ([1]; Target IL-1Ra (isoform 1) signal peptide +10 amino acids) was 111 nM and the IC50 ([1]; Target IL-2Ra (CD25) signal peptide +10 amino acids) was 159 nM. It also gave an IC50 ([1]; Target IL-6R signal peptide +10 amino acids) of 78 nM, an IC50 ([1]; Target IL-6 signal peptide +10 amino acids) of 66 nM and an IC50 ([1]; Target IL-7R signal peptide +10 amino acids) of 58 nM. The IC50 ([1]; Target IL-12b (p40) signal peptide +10 amino acids) was 155 nM, the IC50 ([1]; Target IL-17Ra signal peptide +10 amino acids) was 424 nM and the IC50 ([1]; Target IL-17a signal peptide +10 amino acids) was 447 nM. The IC50 ([1]; Target IL-23R signal peptide +10 amino acids) was 111 nM, the IC50 ([1]; Target IL-23a signal peptide +10 amino acids) was 567 nM and the IC50 ([1]; Target LAG3 signal peptide +10 amino acids) was 75 nM. For the same compound, the IC50 ([1]; Target PD-L1 signal peptide +10 amino acids) was 56 nM, the IC50 ([1]; Target PDGFRa signal peptide +10 amino acids) was 90 nM and the IC50 ([1]; Target TACE (ADAM17) signal peptide +10 amino acids) was 66 nM. It also gave an IC50 ([1]; Target TIGIT signal peptide +10 amino acids) of 162 nM, an IC50 ([1]; Target TIM3 signal peptide +10 amino acids) of 282 nM and an IC50 ([1]; Target TNFR1 signal peptide +10 amino acids) of 307 nM. The IC50 ([1]; Target TNFR2 signal peptide +10 amino acids) was 564 nM, the IC50 ([1]; Target VEGF signal peptide +10 amino acids) was 111 nM and the IC50 ([1]; Target VGFR2 signal peptide +10 amino acids) was 684 nM. It also gave an IC50 ([1]; Target VISTA signal peptide +10 amino acids) of 211 nM, an IC50 [2] of 50.2 nM and an IC50 (IL-6) of 61 nM. The IC50 (GM-CSF) was 165 nM, the tumor growth inhibition (B16F10 cells) was “superior efficacy” and the IC50 (TNFα) was 82 nM. For the same compound, the IC50 [3] was 19.1 nM.
